Consider one compound from patent US20150118293A1, “NOVEL DELIVERY SYSTEM FOR ANTICANCER DRUG BASED ON SHORT-CHAIN- LENGTH POLYHYDROXYALKANOATE NANOPARTICLES” (priority 2013, published 2015).

One data set concerns cancer cells line A549. Description: in vitro cytotoxicity, MTT viability assay. It counts as cell-based. The conditions noted are these: free EPT, concentration not given. On the procedure: The cellular toxicity of blank and EPT loaded scl-PHA nanoparticles as prepared in Example 2 were determined by using cancer cells line A549. The cells were cultured in Dulbecco's Modified Eagle's Medium (DMEM) containing 1% (v/v) Penicillin-Streptomycin (P/S, 10,000 U) antibiotic and 10% (v/v) Fetal Bovine Serum (FBS) and incubated for 24 h at 37° C. and 5% CO2. When cells grew to reach 95% confluence, they were detached from the cell culture flasks using trypsin-EDTA. The cell suspension was centrifuged at 900 rpm for 5 min and then resuspended in culture medium to get the final concentration of 1×10^5 cells/mL. About 200 μL of the cell suspensions were transferred to each well of a clear, flat bottom 96-well plate (Costar) and incubated for 24 h. On treatment day, medium was removed and fresh medium containing 4-fold serial dilutions i.e., 250.0 μg/mL (4 times), 62.5 μg/mL (8 times) and 1.6 μg/mL (12 times) of blank and EPT loaded scl-PHA nanoparticles was added. The toxicity of the nanoparticles was checked after 24, 48 and 72 h of treatment using 3-(4,5-dimethylthiazole-2-yl)-2,5-diphenyl tetrazolium (MTT) viability assay. About 5 mg of MTT was dissolved in 1 mL physiological buffer saline (PBS) solution, followed by 10 times dilution in culture medium. About 100 μL of MTT solution were added to each well after the removal of treatments and incubated for 4 h before the addition of 100 μl, of the solubilization solution (anhydrous isopropanol containing 0.1 N HCl and 10% Triton X-100). The plates were then incubated overnight and absorbance was taken at 570 nm on a microplate reader (BMG FLUOstar OPTIMA) and subtracted from the background signals at 690 nm. The cell % inhibition was calculated relative to wells containing only cell cultures without nanoparticles by using the following formula: […]

The conditions of data set [1]: neutral pH; cited from earlier work.

Regarding `Cc1c2ccncc2c(C)c2c1[nH]c1ccccc12` [EPT, 5,11-dimethyl-6H-pyrido[4,3-b]carbazole], the “Relative % inhibition for A549 cells” value is recorded as 10.02 ± 0.86% with cancer cells line A549 (24 h), 25.40 ± 1.35% in the data set with cancer cells line A549 (48 h) and 32.38% in the data set with cancer cells line A549 (72 h). Further, the water solubility entry in data set [1] is reported as “approximately 0.62 mM”.
